Experimental data reported in a melting point compilation (Tetko et al.; mined from patent text by program, amines drawn as free bases though some values may be those of a salt).

Row | Structure (SMILES) | melting point [°C]
1 | CC1(C)Cc2ccc(F)cc2C=[N+]1[O-] | 88 to 90
2 | Cn1nnnc1Cc1ccc2c(c1)c(C1=CCN(CCN3CCNC3=O)CC1)cn2-c1ccc(F)cc1 | 174 to 176
3 | COC(=O)CCCC(=O)Nc1ccc(C(=O)NN=C2C(=O)Nc3ccc(I)cc32)cc1 | 282
4 | CSc1ccc(-c2coc3ccc(-c4nnc(N)o4)cc23)cc1Cl | 232 to 233
5 | O=C(O)C(=O)c1ccc(OCCOC23CC4CC(CC(C4)C2)C3)cc1 | 107 to 109
6 | COC(=O)CCc1ccc(-n2c(C)c(C)[nH]c2=O)cc1 | 152 to 154
7 | COC(=O)c1nc2n(n1)-c1cc(Cl)ccc1N(c1ccc(Cl)cc1Cl)C2 | 264 to 266
8 | C=Cc1cc(Br)c(OC(C)=O)c(Br)c1 | 76
9 | COC(=O)N1CC[C@H](NC(C)=O)C[C@H]1Cc1ccc(Cl)cc1 (relative stereo) | 169 to 170
10 | CSc1nn2c(Cl)cc(CN3CCOCC3)nc2c1S(=O)(=O)c1ccccc1 | 174 to 176
11 | CCOC(=O)C(C(=O)OC(C)C)=C1SC=CS1 | 54
12 | Cn1cc(-c2ccccc2)c(=O)c(-c2cccc(S(C)(=O)=O)c2)c1 | 176 to 181
13 | CC(C)(COc1ccc(O)c(C(N)=O)c1)NCC(O)COc1ccccc1C#N (stereo not given) | 125 to 126
14 | CCOCc1nc2c(N)nc3ccccc3c2n1CC(C)(C)CS(=O)(=O)NCc1ccc(OC)cc1 | 203 to 205
15 | CNC(C)c1ccc(C2CCC(N(C)C(=O)c3ccc(Cl)cc3)CC2)cc1 (stereo not given) | 153 to 155
16 | CCOC(=O)CC[C@H](NC(=O)c1ccc(CCC2CNc3nc(NC(=O)C(C)(C)C)nc(O)c3C2)cc1)C(=O)OCC (stereo not given in full) | > 250
17 | CCOC(=O)c1ncc2[nH]c3ccc(I)cc3c2c1C | 250 to 255
18 | CC(C)(C)C(=O)c1[nH]c2cc(Cl)ccc2c1N | 132 to 134
19 | OCC1CCCc2scnc21 (stereo not given) | 74 to 75
20 | Cc1ccc2c(=O)c(OC(=O)c3ccccc3)cn(C)c2c1 | 200 to 202
21 | Cc1c(C=O)cccc1-n1cccc1 | 82
22 | CS(=O)(=O)c1ccc(-c2cc(-c3nc4ccccc4c(=O)n3-c3ccccc3)sc2N2CCOCC2)cc1 | > 275
23 | CCn1c2ccccc2c2cc(OC)c(C#N)cc21 | 145 to 155
24 | O=C(Nc1nnn[nH]1)c1cnc2sc3ccc(Cl)cc3n2c1=O | > 300
25 | OCCCc1ccc(OCc2ccccc2)cc1 | 63 to 64

Row | Structure (SMILES) | melting point [°C]
26 | O=C1NC(=O)C(c2ccccc2Cl)C1c1cc2c3c(ccn3CCC2)c1 (stereo not given) | 209 to 212
27 | Cc1ccc(C(=O)Nc2cccnc2)c(Nc2ccc3cn[nH]c3c2)n1 | > 280
28 | Nc1nc2ccc3ccc(CNc4ccc([N+](=O)[O-])cc4)cc3c2c(=O)[nH]1 | > 230
29 | COc1cc(C=C(C=O)C(C=O)=Cc2ccc(OC(C)C)c(OC)c2)ccc1OC(C)C | 119 to 120
30 | COc1ccccc1CC(=N)N1CCC(=O)C(C(c2ccccc2)c2ccccc2)C1 (stereo not given) | 57 to 58
31 | CCCCNC(=O)CCC(=NNC(N)=S)c1ccccc1 | 64 to 68
32 | N#Cc1cnn2c(C(F)(F)F)cc(-c3ccc(F)cc3F)nc12 | 149
33 | OC(CN1CCNC1=S)c1cccnc1 (stereo not given) | 200 to 202
34 | OC(Cc1ccc(Cl)cc1)(Cn1cncn1)Cn1cncn1 | 116 to 118
35 | CS(=O)(=O)OCC1CCN(c2ccc(Br)cc2)C1=O (stereo not given) | 120 to 123
36 | Nc1nc(NC2Cc3ccccc3N(Cc3ccc(F)cc3F)C2)c2cn[nH]c2n1 (stereo not given) | 110 to 114
37 | CC(C)C/C=C\CCCCCCCCCC(=O)O | 12.5
38 | CCN(CC)c1ccc(C2(c3c(C)n(CCOc4ccccc4)c4ccccc34)OC(=O)c3ccccc32)c(C)c1 (stereo not given) | 182 to 183
39 | CCCCCCCCCCCCOC(=O)NS(=O)(=O)Cl | 62 to 63
40 | COc1ccc(C(=O)C(=O)c2ccc(OC(F)F)cc2)cc1C#N | 150 to 155
41 | CC12C=CC(C)(O1)C(Br)C(=O)C2Br (stereo not given) | 115 to 120
42 | Cc1ccc(-n2cc(CCCO)c(C(C)C)n2)nc1 | 82 to 83
43 | CN1C[C@H](CCN2CCC(O)(c3ccc(Cl)cc3)CC2)C=C2c3cccc4[nH]cc(c34)C[C@H]21 | 154 to 157
44 | Cn1c(CCl)cnc1[N+](=O)[O-] | 100 to 101
45 | NC(=O)c1sc2nccc(N3CCCN(c4ccc(Cl)nn4)CC3)c2c1N | 232 to 234
46 | COc1cc2nc(N3CCCN(C(=O)C=Cc4cccnc4)CC3)nc(N)c2cc1OC | 141 to 143
47 | CC(Cl)(Cl)C(NC(=O)c1ccc(Cl)cc1)NC(=NC#N)Nc1cccnc1Cl (stereo not given) | 135 to 137
48 | Cc1nnc(C)n1NC(=N)c1ccc(Cl)cc1 | 303 to 306
49 | O=S(=O)(Nc1cc(F)c(Cl)cc1I)c1ccccc1 | 122 to 124
50 | N=C(Nc1ccc(F)cc1)Nc1ncccc1OCc1c(F)cccc1Cl | 152 to 154

Row | Structure (SMILES) | melting point [°C]
51 | COC(=O)c1cc2cc(NC(C)=O)ccc2o1 | 158 to 159
52 | CN(C)C(=O)COc1ccc2c(-c3ccccc3F)noc2c1Cl | 116
53 | Nc1nc(N)nc(-c2ccc(-c3ccccc3)c3ccccc23)n1 | 239 to 240
54 | COc1c(C2CCN(CCCCNC(=O)c3ccc(-c4ccc(C#N)s4)cc3)CC2)ccc2c1CCCC2 | 182 to 184
55 | O=C(O)CCC(=O)CCS | 40 to 42
56 | C=CCOc1ccc(-c2cccc(C#N)c2)cc1 | 80 to 90
57 | CCOC(=O)COc1ccc(C2C(C(=O)OCC)=C(C)N(C)C(C)=C2C(=O)OCC)cc1OC | 84 to 85
58 | O=C(c1ccccc1)c1cnn2c(-c3cccc(N4CCCC4=O)c3)ccnc12 | 173 to 174
59 | O=C(O)[C@H](CC1CC1)N1C(=O)NC(C(F)(F)F)(C(F)(F)F)C1=O | 123 to 125
60 | COc1ccc2nc(OC)cc(CCNC(C)=O)c2c1 | 119 to 121
61 | Cc1oc2ccccc2c1OC(C)(C)C#N | 53 to 55
62 | Cc1ccc(-c2c(Cl)nc(C#N)n2S(=O)(=O)c2c(C)noc2C)cc1 | 103 to 108
63 | CC(C)Oc1ccc(-n2c(C(=O)O)c(C(=O)O)c3cc(Oc4cccc(Cl)c4)ccc32)cc1 | 182 to 190
64 | N#Cc1ccc2oc(Cc3cc4cc(C#N)ccc4o3)cc2c1 | 173 to 174
65 | O=C(OCCCl)C(O)c1ccccc1 (stereo not given) | 43 to 45
66 | CCOC(=O)c1c(Nc2ccccc2OC)n[nH]c1C | 162 to 172
67 | CCCCOCCOc1ccc(-c2ccc3c(c2)C=C(C(=O)Nc2ccc(SCc4nncn4CCC)c(C)c2)CCN3CC(C)C)cc1 | 104 to 107
68 | CC(C)(C)NC(=O)[C@@H]1CC(=O)CN1C(=O)[C@@H](O)[C@H](Cc1ccccc1)NC(=O)[C@H](CC(N)=O)NC(=O)OCc1ccccc1 | 116 to 120
69 | Cc1onc(-c2cccc(Cl)c2)c1CO | 66 to 68
70 | Cc1cccc(-c2cc(O)c(SCc3ccccc3)c(=O)o2)c1 | 137 to 138
71 | C[C@H](Cc1ccc2c(c1)cc(C(=O)O)n2Cc1ccccc1)NC[C@H](O)c1cccc(Cl)c1 | 128 to 130
72 | CCC(=O)OC1c2ccccc2C(=O)N1c1ccc2ccc(Cl)nc2n1 (stereo not given) | 160
73 | O=C1CCCN1CCCn1cnc2cnc3cc(-c4ccccc4)ccc3c21 | 138 to 141
74 | CCN(CC)c1ccc(NC(=O)N(C[C@@H]2CCC[C@H](CN(C(=O)Nc3ccc(N(CC)CC)cc3)C3CCCCC3)C2)C2CCCCC2)cc1 | 170 to 172
75 | CC(C)Cc1ncn(C(C)C(O)(Cc2nc[nH]n2)c2ccc(Cl)cc2)n1 (stereo not given) | 140 to 141

Row | Structure (SMILES) | melting point [°C]
76 | COc1ccc(C2=NN(Cc3ccc([N+](=O)[O-])cc3)C(=O)SC2)cc1OC | 155
77 | COc1ccnc(CSc2nc3cscc3[nH]2)c1 | 172 to 175
78 | COc1ccc2c(c1Cl)C=CN(C(C)=O)C2 | 78 to 80
79 | Fc1cccc(OCc2nnc(-c3ccc4c(c3)CCO4)o2)c1 | 91 to 93
80 | COC(=O)c1ccc(NC(C)=O)cc1OC | 130 to 132
81 | N=C(NS(=O)(=O)c1ccc(F)cc1)C1=NN(c2ccc(Cl)cc2)C(c2ccccc2)C1 (stereo not given) | 200 to 204
82 | COc1cc(Nc2nccc(-c3ccccn3)n2)cc(OC)c1OC | 185
83 | COC(=O)NN=C1C(=O)Nc2ccc(C3=NNC(=O)SC3C)cc21 (stereo not given) | 201
84 | O=C(O)CCc1cn(Cc2ccc(OCc3ccc(-c4ccccc4)cn3)cc2)cc1-c1ccccc1 | 169 to 170
85 | COC(=N)c1nn(-c2c(Cl)cc(C(F)(F)F)cc2Cl)c(N)c1S(C)=O (stereo not given) | 179 to 180
86 | O=C(O)c1cc(F)c(N2CCNCC2)nc1Nc1ccc(F)cc1F | 279 to 281
87 | COC(=O)CC1=C(C)C(=Cc2ccc(S(=O)(=O)NC(C)=O)cc2)c2ccc(OC)cc21 | 172 to 174
88 | CSc1ccc(C(=O)Cc2ccc(F)cc2)cc1 | 139 to 140
89 | CCOCCc1c(N=[N+]=[N-])nc(NC(=O)NCC(=O)OCC)nc1-c1ccccc1 | 130
90 | COc1cc(CC(=O)OC(C)(C)C)ccc1NC(=O)Nc1ccccc1C(F)(F)F | 131 to 133
91 | CCN1C[C@@H](SCc2ccc(OC)cc2)C[C@H]1C(=O)NC | 68 to 70
92 | O=c1c(O)c(CCCCCO)oc2ccccc12 | 111 to 112
93 | COc1cc(Nc2c(C#N)cnc3cc(-c4ccc(CN5CCN(C)CC5)cc4)sc23)c(Cl)cc1Cl | 226 to 228
94 | O=C(NCCN1CCC(=C(c2ccc(F)cc2)c2ccc(F)cc2)CC1)C1CSC(c2cccnc2)N1 (stereo not given) | 119 to 121
95 | CC(=NNc1ccc(Cl)c2c1CC(C)O2)C(=O)O (stereo not given) | 155 to 157
96 | Cc1ccc(S(=O)(=O)OCC2Cc3cccc(-c4ccccc4C)c3O2)cc1 (stereo not given) | 98 to 100
97 | CSc1cccc2c1CCn1cc(-c3ccccc3)nc1C2OC1CCN(C)CC1 (stereo not given) | 134
98 | CC(C)(C)c1cc(CCc2ccccc2NC(=O)NC2CCCC2)cc(C(C)(C)C)c1O | 186 to 187
99 | COCC(=O)Nc1c(C(=O)c2cccc(Cl)c2)[nH]c2cc(Cl)ccc12 | 154 to 155
100 | O=c1oc2c(c(O)c1C(c1ccccc1)C1CC1)CCCCCC2CC1CCOC1 (stereo not given) | 80 to 84
